Series [1] can be described thus: Measurement of brain and systemic concentration after oral administration. Particulars: rat, male wistar rats, 3 h after oral administration (100 mg/kg), n=3. The series is classed as in vivo. As to the method: Measurement of Brain and Systemic Concentration after Oral Administration:
In order to assess brain penetration, the concentration of the compound is measured in plasma ([P]), and brain ([B]), sampled 3 h (or at different time points) following oral administration (e.g. 100 mg/kg) to male wistar rats. The compounds are formulated e.g. in 100% PEG 400. Samples are collected in the same animal at the same time point (+/−5 min). Blood is sampled from the vena cava caudalis into containers with EDTA as anticoagulant and centrifuged to yield plasma. Brain is sampled after cardiac perfusion of 10 mL NaCl 0.9% and homogenized into one volume of cold phosphate buffer (pH 7.4). All samples are extracted with MeOH and analyzed by LC-MS/MS. Concentrations are determined with the help of calibration curves.

The next series has as its system rodents. Particulars: cited from earlier work.
Series [2] concerns amyloid precursor protein transgenic mice. Conditions: after acute sleep restriction; cited from earlier work.
The subject of another series is rats. Conditions: rats treated with the compound; cited from earlier work.
The subject of another series is mouse. Particulars: administered chronically; cited from earlier work.
A further series has as its system humans. Conditions: indication primary insomnia; cited from earlier work.
Another series deals with rat. Conditions: cited from earlier work.
Setting [3] is: brain, read-out: concentration of the compound in brain ([B]).
[4] abbreviates: plasma, read-out: concentration of the compound in plasma ([P]).

Where two headings read alike, the source gives them in different places.

For `Cc1ccc(-n2nccn2)c(C(=O)N2CCC[C@@]2(C)c2nc3cc(Br)cc(C)c3[nH]2)c1` [Example 5.19, [(S)-2-(5-Bromo-7-methyl-1H-benzoimidazol-2-yl)-2-methyl-pyrrolidin-1-yl]-(5-methyl-2-[1,2,3]triazol-2-yl-phenyl)-methanone], the concentration at 3 h in series [1] (setting [3]) was 3880 ng/g; in series [1] (setting [4]), 2100 ng/mL.
For `Cc1ccc(-c2ncccn2)c(C(=O)N2CCC[C@@]2(C)c2nc3cc(Br)cc(C)c3[nH]2)c1` [Example 5.277, [(S)-2-(5-Bromo-7-methyl-1H-benzoimidazol-2-yl)-2-methyl-pyrrolidin-1-yl]-(5-methyl-2-pyrimidin-2-yl-phenyl)-methanone], in that order: 5880 ng/g and 3560 ng/mL.
On to `Cn1c(SCC(=O)N2CCC[C@H]2C(=O)Nc2ccccc2-c2ccccc2)nc2ccccc21` [N-biphenyl-2-yl-1-{[(1-methyl-1H-benzimidazol-2-yl)sulfanyl]acetyl}-L-prolinamide], for which the “behavioral (locomotor sensitization) and molecular (transcriptional responses) changes induced by repeated amphetamine administration” value with rodents is listed as “reduced”.
Turning to `COc1ccc(-n2nccn2)c(C(=O)N2CCC[C@@]2(C)c2nc3c(C)c(Cl)ccc3[nH]2)c1` [Example 5.36, [(S)-2-(5-Chloro-4-methyl-1H-benzoimidazol-2-yl)-2-methyl-pyrrolidin-1-yl]-(5-methoxy-2-[1,2,3]triazol-2-yl-phenyl)-methanone], the concentration at 3 h amounted to 1810 ng/g in series [1] (setting [3]) and 1280 ng/mL in series [1] (setting [4]).
As for `CNC(=O)[C@@H](c1ccccc1)N1CCc2cc(OC)c(OC)cc2[C@@H]1CCc1ccc(C(F)(F)F)cc1` [(2R)-2-{(1S)-6,7-dimethoxy-1-[2-(4-trifluoromethyl-phenyl)-ethyl]-3,4-dihydro-1H-isoquinolin-2-yl}-N-methyl-2-phenyl-acetamide], the “brain levels of amyloid-beta (Aβ) and Aβ plaque deposition” value in series [2] is on record as “decreased”. Further, the “declarative and non-declarative learning and memory” value in the series on rats is “intact”. In the series on mouse, the “activity in mouse model of depression” value is “antidepressant-like activity”. Besides, the clinical efficacy entry with humans is “showed clinical efficacy”. For the same compound, in the series with rat, the “activity in nicotine self-administration model” value is listed as “displayed pharmacological activity”.

The record behind these values is patent US11040966B2, “Benzimidazole-proline derivatives” (IDORSIA PHARMACEUTICALS LTD, priority 2012, dated 2021).
